Test results reported in US9855268B2, “Triazolo[4,5-d]pyrimidine derivatives” (Merck Patent GmbH, priority 2013, dated 2018).

Experiments:
GCN2 [1] = biological target: T1, GCN2 (Homo sapiens, UniProt Q9P2K8); assay: GCN2 enzyme assay (TR-FRET Lanthascreen, GFP-eIF2alpha phosphorylation); assay type: biochemical; conditions: 10 μM ATP, 80 nM GFP-eIF2a, 30 nM GCN2
Method in brief: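 Kinase reaction with 10 μM ATP and 80 nM GFP-labelled eIF2alpha substrate at room temperature, stopped with EDTA. Phospho-eIF2alpha detected by TR-FRET between antibody and GFP-substrate, excitation at 340 nm.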
Target sequence in this assay (Q9P2K8 whole entry, species assumed): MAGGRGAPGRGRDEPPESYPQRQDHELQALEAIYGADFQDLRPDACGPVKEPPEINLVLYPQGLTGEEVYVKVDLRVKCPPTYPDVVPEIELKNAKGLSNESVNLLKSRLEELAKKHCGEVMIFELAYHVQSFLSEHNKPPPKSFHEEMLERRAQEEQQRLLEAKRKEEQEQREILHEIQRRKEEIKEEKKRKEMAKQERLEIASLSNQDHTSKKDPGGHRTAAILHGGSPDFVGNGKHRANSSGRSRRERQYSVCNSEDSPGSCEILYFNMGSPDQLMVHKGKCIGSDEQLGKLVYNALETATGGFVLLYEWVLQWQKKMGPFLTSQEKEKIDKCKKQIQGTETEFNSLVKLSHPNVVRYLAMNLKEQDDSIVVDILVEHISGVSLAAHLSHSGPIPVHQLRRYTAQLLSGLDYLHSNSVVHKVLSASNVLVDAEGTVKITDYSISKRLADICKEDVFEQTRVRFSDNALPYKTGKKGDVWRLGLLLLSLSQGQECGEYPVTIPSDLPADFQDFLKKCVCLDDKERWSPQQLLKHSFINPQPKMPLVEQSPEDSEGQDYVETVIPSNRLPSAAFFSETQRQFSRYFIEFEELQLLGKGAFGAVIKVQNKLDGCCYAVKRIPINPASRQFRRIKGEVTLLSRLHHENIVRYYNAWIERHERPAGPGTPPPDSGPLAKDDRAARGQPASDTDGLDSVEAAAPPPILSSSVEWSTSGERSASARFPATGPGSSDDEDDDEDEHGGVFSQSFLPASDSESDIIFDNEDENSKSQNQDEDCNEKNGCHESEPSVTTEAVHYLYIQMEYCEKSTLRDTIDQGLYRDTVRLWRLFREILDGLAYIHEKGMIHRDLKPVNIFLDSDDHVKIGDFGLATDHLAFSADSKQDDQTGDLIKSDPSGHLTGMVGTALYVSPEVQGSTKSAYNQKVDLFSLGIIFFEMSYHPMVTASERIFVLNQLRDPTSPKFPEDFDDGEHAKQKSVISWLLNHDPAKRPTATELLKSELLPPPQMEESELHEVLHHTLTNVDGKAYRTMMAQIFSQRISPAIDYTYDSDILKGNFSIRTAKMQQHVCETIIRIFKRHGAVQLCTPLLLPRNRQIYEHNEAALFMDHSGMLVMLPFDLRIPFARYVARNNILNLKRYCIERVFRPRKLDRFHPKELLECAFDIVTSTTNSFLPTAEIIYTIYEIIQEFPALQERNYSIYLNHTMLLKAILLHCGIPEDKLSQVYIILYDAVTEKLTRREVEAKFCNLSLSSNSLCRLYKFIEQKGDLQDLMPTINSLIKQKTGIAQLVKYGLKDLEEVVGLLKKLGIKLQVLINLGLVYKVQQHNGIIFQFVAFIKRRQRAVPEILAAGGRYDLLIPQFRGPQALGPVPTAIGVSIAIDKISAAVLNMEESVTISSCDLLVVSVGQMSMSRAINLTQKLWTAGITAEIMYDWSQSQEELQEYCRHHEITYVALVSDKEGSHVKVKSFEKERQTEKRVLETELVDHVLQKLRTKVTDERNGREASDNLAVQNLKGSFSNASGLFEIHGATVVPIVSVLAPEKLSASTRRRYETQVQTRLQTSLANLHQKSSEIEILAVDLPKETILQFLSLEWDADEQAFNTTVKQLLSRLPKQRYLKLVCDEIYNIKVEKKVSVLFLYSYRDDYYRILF

GSK3α(h) = GSK3α(h) (Homo sapiens, UniProt P49840); assay: GSK3α radiometric kinase assay (33P-ATP, phospho GS2 peptide); assay type: biochemical; conditions: read-out: IC50 GSK3α (enzyme assay)
Method in brief: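 Human GSK3α incubated with 20 μM phospho-GS2 peptide in 8 mM MOPS pH 7,0, 10 mM Mg-acetate and [γ-33P]ATP (concentration as required), started with MgATP. After 40 minutes at room temperature, stopped with phosphoric acid; 33P incorporation measured by filtermat spotting and scintillation counting.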

GSK3β(h) = GSK3β(h) (Homo sapiens, UniProt P49841); assay: GSK3β radiometric kinase assay (33P-ATP, phospho GS2 peptide); assay type: biochemical; conditions: read-out: IC50 GSK3β (enzyme assay)
Method: GSK3β(h) is incubated with 8 mM MOPS pH 7,0, 0,2 mM EDTA, 20 μM
[…](p)EDEEE (phosphor GS2 peptide), 10 mM Mg-acetate and [gamma-33P-ATP](specific activity approx. 500 cpm/Pmol, concentration as required). The reaction is initiated by the addition of the MgATP. After incubation for 40 minutes at the room temperature, the Reaction is stopped by the addition of 3% phosphoric acid solution. 10 μL of reaction is then spotted onto a P30 filtermat and washed three times for 5 minutes in 50 mM phosphoric acid and once in methanol prior to drying and scintillation counting.

GCN2 [2] = biological target: T1, GCN2; assay: Cellular assay of GCN2 activity (phospho-eIF2alpha immunocytochemistry after tryptophanol); assay type: cell-based; set-up: endogenous in cells; host or cells: U2OS; conditions: Human U2OS cells, 2 h compound, 600 μM tryptophanol 30 min
Method in brief: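 Readout in human U2OS cells: compound pretreatment 2 h, then tryptophanol (600 μM final) for 30 min to trigger GCN2 signalling. Fixed, permeabilised cells quantified by immunocytochemistry for phosphorylation, normalised to DMSO controls as % effect; IC50 from concentration-response.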
Target sequence in this assay (Q9P2K8 whole entry): as the sequence (Q9P2K8 whole entry, species assumed) above

Sequence of GSK3β(h) (P49841 whole entry): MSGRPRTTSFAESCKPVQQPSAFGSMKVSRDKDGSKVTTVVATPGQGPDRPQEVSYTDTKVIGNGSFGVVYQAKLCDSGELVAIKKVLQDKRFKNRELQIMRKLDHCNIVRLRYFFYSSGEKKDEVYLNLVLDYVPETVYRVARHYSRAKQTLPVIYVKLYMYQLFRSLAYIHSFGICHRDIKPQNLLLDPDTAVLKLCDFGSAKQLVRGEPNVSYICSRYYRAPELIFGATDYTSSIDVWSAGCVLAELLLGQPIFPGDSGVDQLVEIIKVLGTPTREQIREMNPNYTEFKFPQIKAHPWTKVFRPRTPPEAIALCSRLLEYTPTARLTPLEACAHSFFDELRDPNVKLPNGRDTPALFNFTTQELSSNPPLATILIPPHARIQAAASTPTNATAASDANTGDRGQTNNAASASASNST
Sequence of GSK3α(h) (P49840 whole entry): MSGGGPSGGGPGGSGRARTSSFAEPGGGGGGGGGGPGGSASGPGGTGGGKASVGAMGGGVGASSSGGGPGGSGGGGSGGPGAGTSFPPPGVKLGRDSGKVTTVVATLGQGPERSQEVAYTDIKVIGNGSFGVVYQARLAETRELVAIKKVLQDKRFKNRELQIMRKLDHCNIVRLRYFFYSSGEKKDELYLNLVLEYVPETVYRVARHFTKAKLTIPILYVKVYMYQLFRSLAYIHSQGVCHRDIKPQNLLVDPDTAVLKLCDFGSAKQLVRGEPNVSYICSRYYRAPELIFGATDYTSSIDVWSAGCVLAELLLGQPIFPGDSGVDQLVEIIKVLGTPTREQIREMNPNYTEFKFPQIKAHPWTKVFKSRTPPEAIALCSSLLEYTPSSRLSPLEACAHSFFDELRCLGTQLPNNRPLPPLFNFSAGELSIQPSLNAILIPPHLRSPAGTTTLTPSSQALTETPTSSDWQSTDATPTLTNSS

IC50 (GCN2 [1]) [nM] | IC50 (GSK3α(h)) [nM] | IC50 (GSK3β(h)) [nM] | IC50 (GCN2 [2]) [nM] | Compound
< 1000 | < 1000 | < 1000 | 5000 to 10000 | Cc1ccc2cc(-n3nnc4cnc(N[C@@H]5CCC[C@@H](C(N)=O)C5)nc43)ccc2n1 (relative stereo) [A192, (trans)-3-[3-(2-methyl-quinolin-6-yl)-3H-[1,2,3]triazolo[4,5-d]pyrimidin-5-ylamino]-cyclohexanecarboxylic acid amide]
< 1000 | < 1000 | < 1000 | 1000 to 5000 | CCOc1ccc(-n2nnc3cnc(N[C@@H]4CC[C@@H](O)C4)nc32)cc1 (relative stereo) [A207, (trans)-3-[3-(4-ethoxy-phenyl)-3H-[1,2,3]triazolo[4,5-d]pyrimidin-5-ylamino]-cyclopentanol]
< 1000 | < 1000 | < 1000 | 5000 to 10000 | CC(C)Oc1ccc(-n2nnc3cnc(N[C@@H]4CC[C@@H](O)C4)nc32)cc1 (relative stereo) [A210, (trans)-3-[3-(4-isopropoxy-phenyl)-3H-[1,2,3]triazolo[4,5-d]pyrimidin-5-ylamino]-cyclopentanol]
< 1000 | < 1000 | < 1000 | 1000 to 5000 | Cn1cc(-c2ccc(-n3nnc4cnc(N[C@@H]5CC[C@H](N)C5)nc43)cc2)cn1 [A118, (1S,3R)-N3-{3-[4-(1-methyl-1H-pyrazol-4-yl)-phenyl]-3H-[1,2,3]triazolo[4,5-d]pyrimidin-5-yl}-cyclopentane-1,3-diamine]
< 1000 | < 1000 | 1000 to 5000 | 1000 to 5000 | COCCn1cc(-c2ccc(-n3nnc4cnc(N[C@@H]5CC[C@H](N)C5)nc43)cc2)cn1 [A121, (1S,3R)—N3-(3-{4-[1-(2-methoxy-ethyl)-1H-pyrazol-4-yl]-phenyl}-3H-[1,2,3]triazolo[4,5-d]pyrimidin-5-yl)-cyclopentane-1,3-diamine]
< 1000 | < 1000 | 1000 to 5000 | 1000 to 5000 | COc1ccc(-n2nnc3cnc(N[C@@H]4CC[C@H](CN)C4)nc32)cc1 [A122, ((1R,3S)-3-aminomethyl-cyclopentyl)-[3-(4-methoxy-phenyl)-3H-[1,2,3]triazolo[4,5-d]pyrimidin-5-yl]-amine]
< 1000 | < 1000 | 1000 to 5000 | 1000 to 5000 | Cc1ccc2cc(-n3nnc4cnc(N[C@@H]5CC[C@@H](N)C5)nc43)ccc2n1 [A124, (1R,3R)—N-[3-(2-methyl-quinolin-6-yl)-3H-[1,2,3]triazolo[4,5-d]pyrimidin-5-yl]-cyclopentane-1,3-diamine]
< 1000 | < 1000 | 1000 to 5000 | < 1000 | CCOCCn1cc(-c2ccc(-n3nnc4cnc(N[C@@H]5CC[C@@H](N)C5)nc43)cc2)cn1 [A125, (1R,3R)—N-(3-{4-[1-(2-3thoxy-ethyl)-1H-pyrazol-4-yl]-phenyl}-3H-[1,2,3]triazolo[4,5-d]pyrimidin-5-yl)-cyclopentane-1,3-diamine]
< 1000 | < 1000 | < 1000 | 1000 to 5000 | COCCOc1ccc(-n2nnc3cnc(N[C@@H]4CC[C@@H](C(N)=O)C4)nc32)cc1 [A135, (1R,3R)-3-{3-[4-(2-methoxy-ethoxy)-phenyl]-3H-[1,2,3]triazolo[4,5-d]pyrimidin-5-ylamino}-cyclopentanecarboxylic acid amide]
< 1000 | < 1000 | < 1000 | 1000 to 5000 | Cc1nc2ccc(-n3nnc4cnc(N[C@@H]5CC[C@@H](C(N)=O)C5)nc43)cc2s1 [A147, (1R,3R)-3-[3-(2-methyl-benzothiazol-6-yl)-3H-[1,2,3]triazolo[4,5-d]pyrimidin-5-ylamino]-cyclopentanecarboxylic acid amide]
< 1000 | < 1000 | < 1000 | 1000 to 5000 | CCOc1ccc(-n2nnc3cnc(N[C@@H]4CC[C@@H](C(N)=O)C4)nc32)cc1 [A150, (1R,3R)-3-[3-(4-ethoxy-phenyl)-3H-[1,2,3]triazolo[4,5-d]pyrimidin-5-ylamino]-cyclopentanecarboxylic acid amide]
< 1000 | < 1000 | < 1000 | 1000 to 5000 | NC(=O)[C@@H]1CC[C@@H](Nc2ncc3nnn(-c4ccc(OC[C@H](O)C(F)(F)F)cc4)c3n2)C1 [A151, (1R,3R)-3-{3-[4-((S)-3,3,3-trifluoro-2-hydroxy-propoxy)-phenyl]-3H-[1,2,3]triazolo[4,5-d]pyrimidin-5-ylamino}-cyclopentanecarboxylic acid amide]
< 1000 | < 1000 | < 1000 | 1000 to 5000 | COc1ccc(-n2nnc3cnc(N[C@@H]4CC[C@@H](C(N)=O)C4)nc32)cc1F [A152, (1R,3R)-3-[3-(3-fluoro-4-methoxy-phenyl)-3H-[1,2,3]triazolo[4,5-d]pyrimidin-5-ylamino]-cyclopentanecarboxylic acid amide]
< 1000 | < 1000 | < 1000 | 5000 to 10000 | NC(=O)[C@@H]1CC[C@@H](Nc2ncc3nnn(-c4ccc(OCCO)cc4)c3n2)C1 [A153, (1R,3R)-3-{3-[4-(2-hydroxy-ethoxy)-phenyl]-3H-[1,2,3]triazolo[4,5-d]pyrimidin-5-ylamino}-cyclopentanecarboxylic acid amide]
< 1000 | < 1000 | < 1000 | 1000 to 5000 | NC(=O)[C@@H]1CC[C@@H](Nc2ncc3nnn(-c4ccc(OC[C@@H](O)C(F)(F)F)cc4)c3n2)C1 [A155, (1R,3R)-3-{3-[4-((R)-3,3,3-trifluoro-2-hydroxy-propoxy)-phenyl]-3H-[1,2,3]triazolo[4,5-d]pyrimidin-5-ylamino}-cyclopentanecarboxylic acid amide]
< 1000 | < 1000 | < 1000 | 1000 to 5000 | CCOc1ccc(-n2nnc3cnc(N[C@@H]4CC[C@@H](C(N)=O)C4)nc32)cc1F [A157, (1R,3R)-3-[3-(4-ethoxy-3-fluoro-phenyl)-3H-[1,2,3]triazolo[4,5-d]pyrimidin-5-ylamino]-cyclopentanecarboxylic acid amide]
< 1000 | < 1000 | < 1000 | 5000 to 10000 | NC(=O)[C@@H]1CC[C@@H](Nc2ncc3nnn(-c4ccc(N5CCOCC5)c(F)c4)c3n2)C1 [A158, (1R,3R)-3-[3-(3-fluoro-4-morpholin-4-yl-phenyl)-3H-[1,2,3]triazolo[4,5-d]-pyrimidin-5-ylamino]-cyclopentanecarboxylic acid amide]
< 1000 | < 1000 | < 1000 | 5000 to 10000 | COc1ccc(-n2nnc3cnc(N[C@@H]4CC[C@@H](C(N)=O)C4)nc32)cc1C [A162, (1R,3R)-3-[3-(4-methoxy-3-methyl-phenyl)-3H-[1,2,3]triazolo[4,5-d]pyrimidin-5-ylamino]-cyclopentanecarboxylic acid amide]
< 1000 | < 1000 | < 1000 | 5000 to 10000 | CC(C)Oc1ccc(-n2nnc3cnc(N[C@@H]4CC[C@@H](C(N)=O)C4)nc32)cc1 [A164, (1R,3R)-3-[3-(4-isopropoxy-phenyl)-3H-[1,2,3]triazolo[4,5-d]pyrimidin-5-ylamino]-cyclopentanecarboxylic acid amide]
< 1000 | < 1000 | < 1000 | 1000 to 5000 | Cc1cc2cc(-n3nnc4cnc(N[C@@H]5CC[C@@H](C(N)=O)C5)nc43)ccc2o1 [A180, (1R,3R)-3-[3-(2-methyl-benzofuran-5-yl)-3H-[1,2,3]triazolo[4,5-d]pyrimidin-5-ylamino]-cyclopentanecarboxylic acid amide]
< 1000 | < 1000 | < 1000 | 1000 to 5000 | CCOCCOc1ccc2cc(-n3nnc4cnc(N[C@@H]5CC[C@@H](C(N)=O)C5)nc43)ccc2n1 [A182, (1R,3R)-3-{3-[2-(2-ethoxy-ethoxy)-quinolin-6-yl]-3H-[1,2,3]triazolo[4,5-d]-pyrimidin-5-ylamino}-cyclopentanecarboxylic acid amide]
< 1000 | < 1000 | < 1000 | 1000 to 5000 | Cc1ncc2cc(-n3nnc4cnc(N[C@@H]5CC[C@@H](C(N)=O)C5)nc43)ccc2n1 [A184, (1R,3R)-3-[3-(2-methyl-quinazolin-6-yl)-3H-[1,2,3]triazolo[4,5-d]pyrimidin-5-ylamino]-cyclopentanecarboxylic acid amide]
< 1000 | < 1000 | < 1000 | – | CC(C)(O)c1ccc(-n2nnc3cnc(N[C@@H]4CC[C@@H](C(N)=O)C4)nc32)cc1 [A289, (1R,3R)-3-{3-[4-(1-hydroxy-1-methyl-ethyl)-phenyl]-3H-[1,2,3]triazolo[4,5-d]pyrimidin-5-ylamino}-cyclopentanecarboxylic acid amide]
